Experimental data reported in PubChem BioAssay AID504330 (The Scripps Research Institute Molecular Screening Center, 2011).
Active and inactive are the calls of the source.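 How the source made its calls: active means EC50 at or below 10 µM; inactive means the rest.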

Target: Caspase-7 (Homo sapiens) (UniProt P55210)
Test: potency of procaspase-7 enzyme activation – biochemical, absorbance, human, dual procaspase-3/-7 activator project, dose response (AID 504330)
Details: recombinant procaspase-7 D3A, Ac-DEVD-pNA absorbance 405 nm

Caspase-7 (Homo sapiens), sequence (P55210 whole entry D23A/D198A/D206A): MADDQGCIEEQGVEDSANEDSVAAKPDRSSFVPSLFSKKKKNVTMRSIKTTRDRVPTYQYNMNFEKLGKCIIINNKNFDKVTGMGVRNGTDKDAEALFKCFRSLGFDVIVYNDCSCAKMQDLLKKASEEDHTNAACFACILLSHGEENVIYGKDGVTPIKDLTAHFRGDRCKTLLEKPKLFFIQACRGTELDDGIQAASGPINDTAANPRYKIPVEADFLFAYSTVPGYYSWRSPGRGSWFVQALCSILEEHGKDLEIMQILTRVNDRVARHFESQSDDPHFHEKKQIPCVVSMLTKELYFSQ

EC50: > 85.3 µM (inactive)
SMILES: CCOc1ccc(N=CC2=C(O)CC(c3ccco3)CC2=O)cc1 (stereo unspecified)
